Assay results from patent EP2272817A1, “PAI-1 INHIBITOR” (Institute of Medicinal Molecular Design, Inc., priority 2008, dated 2009).

Target: recombinant human PAI-1 (Homo sapiens, UniProt P05121)
Assay: Test Example 2: Human PAI-1 Inhibitory Activity (pH 7.4 HEPES buffer, 10 minutes incubation with two-chain tPA)
Format: biochemical
Design: purchased Molecular Innovations, Inc
Conditions: read-out: Inhibition Rate of PAI-1 Activity (%)
Experimental: 0.1 M HEPES, 0.1 M NaCl. 1 mM EDTA. 0.1 % Polyethylene glycol 8,000 (Hampton Research Corporation),
2 mM Dimethyldecylphoshine oxide [Apo-10] (Fluka Corporation)

Chain of recombinant human PAI-1 (P05121 24-402): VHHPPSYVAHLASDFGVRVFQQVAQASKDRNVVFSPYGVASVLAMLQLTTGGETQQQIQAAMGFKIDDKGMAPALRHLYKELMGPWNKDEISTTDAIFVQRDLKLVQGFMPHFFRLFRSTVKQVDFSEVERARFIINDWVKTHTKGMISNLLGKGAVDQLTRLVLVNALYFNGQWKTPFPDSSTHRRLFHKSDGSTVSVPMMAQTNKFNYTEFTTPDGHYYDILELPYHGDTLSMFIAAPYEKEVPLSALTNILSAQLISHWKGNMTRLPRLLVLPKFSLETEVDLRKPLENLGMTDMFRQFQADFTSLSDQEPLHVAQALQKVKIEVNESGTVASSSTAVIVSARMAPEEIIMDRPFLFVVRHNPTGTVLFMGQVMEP

Compound | inhibition at 0.1 µM | inhibition at 0.3 µM | inhibition at 1 µM | inhibition at 3 µM
CCCCc1ccc(Oc2cc(-c3ccc(OC(F)(F)F)cc3)ccc2/C=C/C(=O)O)cc1 [Compound 511] | 11% | 68% | > 99% | > 99%
CCCCc1ccc(Oc2cc(-c3ccc(OC(F)(F)F)cc3)ccc2CCC(=O)O)cc1 [Compound 512] | 18% | 41% | 96% | 98%
CC(C)c1ccccc1Oc1cc(-c2ccc(OC(F)(F)F)cc2)ccc1OCC(=O)O [Compound 513] | 17% | 7% | 69% | > 99%
CC(C)(C)c1cccc(Oc2cc(-c3cccc(OC(F)(F)F)c3)ccc2/C=C/C(=O)O)c1 [Compound 514] | 21% | 22% | 96% | > 99%
CC(C)(C)c1cccc(Oc2cc(-c3cccc(OC(F)(F)F)c3)ccc2CCC(=O)O)c1 [Compound 515] | 12% | 16% | 86% | > 99%
CC(C)c1ccc(Sc2cc(-c3ccc(OC(F)(F)F)cc3)ccc2/C=C/C(=O)O)cc1 [Compound 516] | 16% | 39% | 98% | > 99%
CC(C)(C)c1ccc(Sc2cc(-c3ccc(OC(F)(F)F)cc3)ccc2CCC(=O)O)cc1 [Compound 517] | 20% | 50% | 95% | > 99%
CC(C)c1ccc(-c2ccc(/C=C/C(=O)O)c(Oc3ccc(C(C)(C)C)cc3)c2)cc1 [Compound 518] | 14% | 54% | > 99% | > 99%
CC(C)c1ccc(-c2ccc(CCC(=O)O)c(Oc3ccc(C(C)(C)C)cc3)c2)cc1 [Compound 519] | 1% | 19% | > 99% | > 99%
CC(C)c1ccc(-c2ccc(/C=C/C(=O)O)c(Sc3ccc(C(C)(C)C)cc3)c2)cc1 [Compound 520] | 14% | 72% | > 99% | > 99%
CCC(CC)Oc1ccc(-c2ccc(/C=C/C(=O)O)c(Oc3ccc(C(C)(C)C)cc3)c2)cc1 [Compound 521] | 25% | 82% | > 99% | > 99%
CCC(CC)Oc1ccc(-c2ccc(CCC(=O)O)c(Oc3ccc(C(C)(C)C)cc3)c2)cc1 [Compound 522] | 33% | 71% | 98% | 98%
CCCCOc1ccc(Oc2cc(-c3ccc(OC(F)(F)F)cc3)ccc2OCC(=O)O)cc1 [Compound 523] | 11% | 15% | 78% | > 99%
CC(C)(C)c1ccc(Oc2cc(-c3ccc(OC(F)(F)F)cc3)ccc2CCCC(=O)O)cc1 [Compound 527] | 6% | 36% | 98% | > 99%
O=C(O)/C=C/c1ccc(-c2ccc(OC(F)(F)F)cc2)cc1Sc1ccccc1 [Compound 528] | 8% | 12% | 51% | 97%
CC(C)(C)c1ccc(Sc2cc(-c3ccc(OC(F)(F)F)cc3)ccc2/C=C\C(=O)O)cc1 [Compound 529] | 18% | 29% | 94% | > 99%
CC(C)(C)c1ccc(Sc2cc(-c3ccc(OC(F)(F)F)cc3)ccc2CC(=O)O)cc1 [Compound 530] | 17% | 21% | 93% | > 99%
